Results: patent US10562850B2, “Human plasma kallikrein inhibitors” (priority 2015, dated 2020)

Target: human plasma kallikrein (Homo sapiens (Human), UniProt P03952)
Test: Plasma Kallikrein Activity Assay (chromogenic substrate S2302)
Type: biochemical
Conditions: 2 nM kallikrein, 80 μM S2302, 30° C., pH 7.8; Cheng-Prusoff
Method: Plasma Kallikrein Activity Assay.
The effect of compounds of the invention on human plasma kallikrein activity was determined using the chromogenic substrates (DiaPharma Group, Inc., West Chester, Ohio, USA). In these experiments, 2 nM kallikrein (Enzyme Research Laboratories, South Bend, Ind., USA) was incubated with 80 μM S2302 (H-D-Pro-Phe-Arg-p-nitroaniline) in the absence or presence of increasing concentrations of compounds of the invention in a final volume of 200 μL Tris-HCl buffer (200 mM NaCl; 2.5 mM CaCl2; 50 mM Tris-HCl, pH 7.8).
After incubation at 30° C., the activity of kallikrein was measured as a change in absorbance at OD 405 nm using BioTek PowerWave X340 Microplate Reader (Winooski, Vt., USA). Data were analyzed using SigmaPlot software (Systat Software, Inc., San Jose, Calif., USA) (Four Parameter Logistic Curve). Ki values for the inhibitors were determined using the Cheng-Prusoff equation (Biochem. Pharmacol. 1973, 22, 3099).

human plasma kallikrein, sequence (P03952 391-638): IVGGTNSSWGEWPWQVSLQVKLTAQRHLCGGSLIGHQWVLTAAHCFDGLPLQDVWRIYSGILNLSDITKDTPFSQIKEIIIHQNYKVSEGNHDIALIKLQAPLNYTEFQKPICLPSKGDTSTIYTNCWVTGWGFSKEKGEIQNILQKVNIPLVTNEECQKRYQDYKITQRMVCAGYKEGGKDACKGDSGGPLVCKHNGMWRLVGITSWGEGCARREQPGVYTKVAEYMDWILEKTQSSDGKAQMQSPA
human plasma kallikrein, sequence (P03952 20-390 partner): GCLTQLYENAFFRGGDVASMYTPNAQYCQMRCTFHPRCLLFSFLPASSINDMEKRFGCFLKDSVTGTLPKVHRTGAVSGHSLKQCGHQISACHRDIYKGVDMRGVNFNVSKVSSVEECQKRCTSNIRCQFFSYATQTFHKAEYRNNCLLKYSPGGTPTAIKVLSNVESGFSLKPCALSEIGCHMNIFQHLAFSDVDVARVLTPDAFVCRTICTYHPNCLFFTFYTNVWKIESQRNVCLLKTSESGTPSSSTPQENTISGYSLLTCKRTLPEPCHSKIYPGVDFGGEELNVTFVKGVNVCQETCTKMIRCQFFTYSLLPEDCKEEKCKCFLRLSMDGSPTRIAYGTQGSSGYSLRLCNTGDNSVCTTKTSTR

Molecule | Ki [nM]
N#Cc1cccc(C(N)(CCC2CC2)c2ccc(F)c(NC(=O)[C@H]3CC(=O)CN3C(=O)Nc3ccc(Cl)cc3)c2)c1 (stereo partly drawn) [Compound 20b, (R)-N2-(5-(1-amino-1-(3-cyanophenyl)-3-cyclopropylpropyl)-2-fluorophenyl)-N1-(4-chlorophenyl)-4-oxopyrrolidine-1,2-dicarboxamide] | > 100
CO[C@@H]1C[C@H](C(=O)Nc2cc(C(CCC3CC3)n3ccccc3=O)ccc2F)N(C(=O)Nc2ccc(Cl)cn2)C1 (stereo partly drawn) [Compound 43m, (2R,4R)-N1-(5-chloropyridin-2-yl)-N2-(5-((+)-3-cyclopropyl-1-(2-oxopyridin-1(2H)-yl)propyl)-2-fluorophenyl)-4-methoxypyrrolidine-1,2-dicarboxamide] | 50 to 100
CO[C@@H]1C[C@@H](C(=O)Nc2cc(C(CCC3CC3)(N[S@+]([O-])C(C)(C)C)c3cccc(C#N)c3)ccc2F)N(C(=O)N(C)c2ccc(Cl)cc2)C1 (stereo partly drawn) [Compound 6d, (2S,4R)-N1-(4-chlorophenyl)-N2-(5-(1-(3-cyanophenyl)-3-cyclopropyl-1-((R)-1,1-dimethylethylsulfinamido)propyl)-2-fluorophenyl)-4-methoxy-N1-methylpyrrolidine-1,2-dicarboxamide] | > 100
N#Cc1cccc(C(N)(CCC2CC2)c2ccc(F)c(NC(=O)[C@H]3C[C@@H](O)CN3C(=O)Nc3ccc(Cl)cc3)c2)c1 (stereo partly drawn) [Compound 4g, (2R,4R)-N2-(5-((+)-1-amino-1-(3-cyanophenyl)-3-cyclopropylpropyl)-2-fluorophenyl)-N1-(4-chlorophenyl)-4-hydroxypyrrolidine-1,2-dicarboxamide] | 50 to 100
O=C(Nc1ccc(Cl)cn1)NC(CCC1CC1)(c1ccc(F)c(NC(=O)[C@H]2C[C@](O)(c3ccccc3)CN2C(=O)Nc2ccc(Cl)cn2)c1)c1ccccn1 (stereo partly drawn) [Compound 32b, (2R,4S)-N1-(5-chloropyridin-2-yl)-N2-(5-(1-(3-(5-chloropyridin-2-yl)ureido)-3-cyclopropyl-1-(pyridin-2-yl)propyl)-2-fluorophenyl)-4-hydroxy-4-phenylpyrrolidine-1,2-dicarboxamide] | > 100
NC(CCC1CC1)(c1cccnc1)c1ccc(F)c(NC(=O)[C@H]2C[C@@H](O)CN2C(=O)Nc2ccc(Cl)cc2)c1 (stereo partly drawn) [Compound 64g, (2R,4R)-N2-(5-((+)-1-amino-3-cyclopropyl-1-(pyridin-3-yl)propyl)-2-fluorophenyl)-N1-(4-chlorophenyl)-4-hydroxypyrrolidine-1,2-dicarboxamide] | < 50
CO[C@@H]1C[C@H](C(=O)Nc2cccc(C(N)(CCC3CC3)c3ccncc3)c2)N(C(=O)Nc2ccc(Cl)cn2)C1 (stereo partly drawn) [Compound 75e, (2R,4R)-N2-(3-((+)-1-amino-3-cyclopropyl-1-(pyridin-4-yl)propyl)phenyl)-N1-(5-chloropyridin-2-yl)-4-methoxypyrrolidine-1,2-dicarboxamide] | < 50
CCO[C@@H]1C[C@H](C(=O)Nc2cc(C(CCC3CC3)(NC(C)=O)c3ccncc3)ccc2F)N(C(=O)Nc2ccc(Cl)cn2)C1 (stereo partly drawn) [Compound 56a, (2R,4R)-N2-(5-((+)-1-acetamido-3-cyclopropyl-1-(pyridin-4-yl)propyl)-2-fluorophenyl)-N1-(5-chloropyridin-2-yl)-4-ethoxypyrrolidine-1,2-dicarboxamide] | < 50
CO[C@@H]1C[C@H](C(=O)Nc2cc(C(N)(CCC3CC3)c3ccccn3)ccc2F)N(C(=O)Nc2ccc(Cl)cc2)C1 (stereo partly drawn) [Compound 65b, (2R,4R)-N2-(5-((+)-1-amino-3-cyclopropyl-1-(pyridin-2-yl)propyl)-2-fluorophenyl)-N1-(4-chlorophenyl)-4-methoxypyrrolidine-1,2-dicarboxamide] | < 50
N#Cc1cccc(C(N)(CCC2CC2)c2ccc(F)c(NC(=O)[C@H]3C[C@@H](O)CN3C(=O)Nc3ccc(C(F)(F)F)cc3)c2)c1 (stereo partly drawn) [Compound 27b, (2R,4R)-N2-(5-((+)-1-amino-1-(3-cyanophenyl)-3-cyclopropylpropyl)-2-fluorophenyl)-4-hydroxy-N1-(4-(trifluoromethyl)phenyl)pyrrolidine-1,2-dicarboxamide] | > 100
N#Cc1cccc(C(N)(CCC2CC2)c2ccc(F)c(NC(=O)[C@H]3C[C@@H](O)CN3C(=O)Nc3ccc([N+](=O)[O-])cc3)c2)c1 (stereo partly drawn) [Compound 25b, (2R,4R)-N2-(5-((+)-1-amino-1-(3-cyanophenyl)-3-cyclopropylpropyl)-2-fluorophenyl)-4-hydroxy-N1-(4-nitrophenyl)pyrrolidine-1,2-dicarboxamide] | > 100
C[C@@H]1C[C@H](C(=O)Nc2cc(C(N)(CCC3CC3)c3ccncc3)ccc2F)N(C(=O)Nc2ccc(Cl)cn2)C1 (stereo partly drawn) [Compound 49d, (2R,4R)-N2-(5-((+)-1-amino-3-cyclopropyl-1-(pyridin-4-yl)propyl)-2-fluorophenyl)-N1-(5-chloropyridin-2-yl)-4-methylpyrrolidine-1,2-dicarboxamide] | 50 to 100
N#Cc1cccc(C(N)(CCC2CC2)c2ccc(F)c(NC(=O)[C@H]3C[C@](O)(c4ccccc4)CN3)c2)c1 (stereo partly drawn) [Compound 29d, (2R,4S)-N-(5-((−)-1-amino-1-(3-cyanophenyl)-3-cyclopropylpropyl)-2-fluorophenyl)-4-hydroxy-4-phenylpyrrolidine-2-carboxamide] | > 100
N#Cc1cccc(C(N)(CCC2CC2)c2ccc(F)c(NC(=O)[C@H]3C[C@@H](N)CN3C(=O)Nc3ccc(Cl)cc3)c2)c1 (stereo partly drawn) [Compound 19c, (2R,4R)-4-amino-N2-(5-((+)-1-amino-1-(3-cyanophenyl)-3-cyclopropylpropyl)-2-fluorophenyl)-N1-(4-chlorophenyl)pyrrolidine-1,2-dicarboxamide] | > 100
CO[C@@H]1C[C@H](C(=O)Nc2cc(C(N)(CCC3CC3)c3ccncc3)ccc2F)N(C(=O)c2ccc3c(Cl)c[nH]c3c2)C1 (stereo partly drawn) [Compound 83a, (2R,4R)-N-(5-((+)-1-amino-3-cyclopropyl-1-(pyridin-4-yl)propyl)-2-fluorophenyl)-1-(3-chloro-1H-indole-6-carbonyl)-4-methoxypyrrolidine-2-carboxamide] | > 100
CO[C@@H]1C[C@H](C(=O)Nc2cc(C(N)(CCC3CC3)c3ccncc3)ccc2F)N(C(=O)c2ccc(Cl)c(N)c2)C1 (stereo partly drawn) [Compound 84a, (2R,4R)-N-(5-((+)-1-amino-3-cyclopropyl-1-(pyridin-4-yl)propyl)-2-fluorophenyl)-1-(3-amino-4-chlorobenzoyl)-4-methoxypyrrolidine-2-carboxamide] | > 100
CO[C@]1(c2ccccc2)C[C@H](C(=O)Nc2cc(C(N)(CCC3CC3)c3ccncc3)ccc2F)N(C(=O)Nc2ccc(Cl)cn2)C1 (stereo partly drawn) [Compound 45c, (2R,4S)-N2-(5-((+)-1-amino-3-cyclopropyl-1-(pyridin-4-yl)propyl)-2-fluorophenyl)-N1-(5-chloropyridin-2-yl)-4-methoxy-4-phenylpyrrolidine-1,2-dicarboxamide] | > 100
(2R,4R)-N1-(4-chlorophenyl)-N2-(5-((+)-3-cyclopropyl-1-((S)-1,1-dimethylethylsulfinamido)-1-(pyridin-2-yl)propyl)-2-fluorophenyl)-4-hydroxypyrrolidine-1,2-dicarboxamide [Compound 61b] | < 50
CO[C@@H]1C[C@H](C(=O)Nc2cc(C(N)(CCC3CC3)c3ccncc3)ccc2F)N(C(=O)Nc2ccc(Cl)cn2)C1 (stereo partly drawn) [Compound 70c, (2R,4R)-N2-(5-((+)-1-amino-3-cyclopropyl-1-(pyridin-4-yl)propyl)-2-fluorophenyl)-N1-(5-chloropyridin-2-yl)-4-methoxypyrrolidine-1,2-dicarboxamide] | < 50
